Data on six compounds can be found in patent US12570657B2, “Mesylate salts of heterocyclic cytokinins, compositions containing these derivatives and use thereof” (UNIVERZITA PALACKEHO V OLOMOUCI, priority 2020, dated 2026).

One may read the IC50 as the midpoint of a concentration-inhibition curve. The solubility is the dissolved amount per volume that the medium holds.

Molecules are shown by their SMILES. In brackets after ≈: the same amount, converted by molar mass. Like-named read-outs stand apart in the source and are kept apart here.

Data set [1] deals with CEM (T-lymphoblastic leukemia). In words: In vitro cytotoxicity, Calcein AM assay, CEM. The settings on record: 3-day Calcein-AM assay. In kind it is cell-based. The method, boiled down: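 Seed ~10,000 cells/well; 12 h later add test compounds; incubate 72 h, 37 °C, 5% CO2; add Calcein AM to 1 μg/ml final; incubate 1 h; read calcein fluorescence. Vehicle control DMSO.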
A further data set concerns NIH-3T3. In words: In vitro cytotoxicity, Calcein AM assay, NIH-3T3. In kind it is cell-based. The settings on record: Mus musculus, NIH3T3, 72 h, 3-day Calcein-AM assay. The text has this:
Because toxic compounds adversely affect cell metabolic processes, many standard cytotoxicity assays are based on measuring the rate of metabolism of various artificial substrates. The resulting product is then quantified, for example, by spectrometry. Assays can be easily modified for use in 96-well plates, A microtiter assay based on the quantification of Calcein AM metabolism was used to evaluate the cytotoxicity of cytokinins, for example meta-topolin, ortho-topolin, kinetin, BAP or its mesylate salts, but also a number of other cytokinin mesylate derivatives according to the invention. The test is widely used in drug screening programs and in chemosensitivity testing. In living cells, Calcein AM is enzymatically hydrolyzed and the accumulation of the resulting calcein is manifested by green fluorescence. The following cell lines—RPMI 8226 (multiple myeloma), CEM (T-lymphoblastic leukemia), K562 (chronic myeloid leukemia), HL-60 (promyelocytic, leukemia), MCF-7 (breast adenocarcinoma), HeLa (cervical cancer), G361 (malignant melanoma), HOS (human osteosarcoma) and BJ (human foreskin fibroblasts)—were obtained from the American Type Culture Collection (Manassas, VA, USA). These cells were maintained in standard DMEM or RPMI medium (Sigma, MO, USA) supplemented with heat-inactivated fetal bovine serum (10%) with 2 mM L-glutamine and penicillin-streptomycin (1%) under standard cell culture conditions (37° C., 5% CO2 in a humid environment) and subcultured two or three times a week using a standard trypsinization procedure. Approximately 10,000 cells in 80 μl of medium were seeded in a 96-well microtiter plate. After 12 hours of incubation, the compounds to be tested were added in 20 μl aliquots. Control cultures were treated with DMSO alone. […] Serial, 3-fold dilutions (six in total, peak concentrations in 166 μM incubations) of each compound were tested. After 72 hours of incubation, Calcein AM solution (Molecular Probes) was added to a final concentration of 1 μg/ml and the cells were incubated for another hour. Free calcein fluorescence was then quantified using a Fluoroscan Ascent fluorometer (Microsystems), and the percentage of surviving cells in each well was calculated by dividing the OD obtained from each cell by the exposed cells by the mean OD obtained from control wells×100%, Finally, IC50 values (concentration causing a 50% decrease in cellular esterase activity) were calculated for each compound generated from dose-response curves (Krys̆tof et al., 2005, Bioorg. Med. Chem. Lett. 12, 3283-3286). The IC50 values reported here are averages obtained from at least three independent experiments, where the individual replication values fell within 20% of the average. […]

Data set [2] has as its system Spring barley (variety Francin). In words: Field trial: grain yield and productive tillers of spring barley after foliar spray. In kind it is in vivo. To be noted: for Length of plants / Medium tillers (number) / Number of spikes per square meter / SUM of tillers / Strong tillers (number) / Weak tillers (number) / Grain yield (t/ha) at 14% humidity / Grain yield, % compared to control / Length of plants, % compared to control / Medium tillers, % compared to control / Number of spikes per square meter, % compared to control / SUM of tillers, % compared to control / Strong tillers, % compared to control / Weak tillers, % compared to control: 5 uMol; for Length of plants / Medium tillers (number) / Number of spikes per square meter / SUM of tillers / Strong tillers (number) / Weak tillers (number) / Grain yield, % compared to control / Length of plants, % compared to control / Medium tillers, % compared to control / Number of spikes per square meter, % compared to control / SUM of tillers, % compared to control / Strong tillers, % compared to control / Weak tillers, % compared to control: application BBCH 31-33; for Grain yield (t/ha) at 14% humidity: application BBCH 31-33, spring barley; for Grain yield, % compared to control / Length of plants, % compared to control / Medium tillers, % compared to control / Number of spikes per square meter, % compared to control / SUM of tillers, % compared to control / Strong tillers, % compared to control / Weak tillers, % compared to control: untreated control = 100; for Grain yield: foliar spray 300 l/ha, BBCH 31-33. As for the experimental part:
Spring barley (variety Francin) was treated in 2019 at the locality in Olomouc, sprayed with substances—marked BAP (benzylaminopurine), meta-topolin mesylate and BAP mesylate. The seed was 3.5 million germinating seeds, the experiment was established in 5 randomized replicates for each variant, the control was an untreated variant. The experiment was performed according to the GEP (Good Experimental Practice) methodology, the size of individual plots was 10 m^2. The application of the substances was carried out at a rate of 300 l/ha, in the growth phase BBCH 31-33 (beginning of peeling).

Data set [3] in a line: Solubility in organic solvents (progressive solvent addition). It counts as physicochemical. The settings on record: organic solvent or mixture, thermodynamic from solid. As for the experimental part: Solubility in organic solvents was measured using the following protocol. Approximately 25 mg portions of meta-topolin and crystalline meta-topolin mesylate salt were placed in 48 different vials, separately. 5 volume aliquots of each solvent were added progressively (repeatedly) to the vials. After each addition, the mixture was checked for dissolution and if no dissolution was visible, the procedure was continued until dissolution was observed, or until 50 volumes have been added.

A short description of data set [4]: Disproportionation stability study (water slurry, XRPD). It counts as physicochemical. The settings on record: slurried in distilled water ca. 48 hours. Here is the method:
A 50 mg sample of crystalline meta-topolin mesylate crystalline salt was slurried in 250 μL distilled water for ca. 48 hours and then checked by XRPD for disproportionation.

Data set [5] is described as follows: Storage stability study of solid crystalline salt (XRPD, colour). It counts as physicochemical. To be noted: sealed tube, 25° C., 60 days. As for the experimental part: 50 mg sample of crystalline meta-topolin mesylate crystalline salt was placed in an eppendorf tube and sealed. The sample was kept at 25° C. for 60 days. No color change was noted during the storage period. XRPD of samples were taken after 60 days to investigate any solid form change.

The conditions of data set [6]: water; reported value; cited from earlier work.
[7] abbreviates: DMF, read-out: Solubility in DMF.
Setting [8] is: DMSO, read-out: Solubility in DMSO.
[9] abbreviates: acetone, read-out: Solubility in aceton.
[10] abbreviates: acetonitrile, read-out: Solubility in acetonitrile.
The mark [11] stands for this setting: ethanol, read-out: Solubility in ethanol.
[12] abbreviates: heptane, read-out: Solubility in heptane.
[13] abbreviates: methanol, read-out: Solubility in methanol.

`COc1cccc(CNc2ncnc3nc[nH]c23)c1` [3MeOBAP, 6-(3-methoxybenzylamino)purine]: the IC50 (in data set [1] (72 h); in the data set with NIH-3T3) was > 167 µM throughout.

On to `CS(=O)(=O)O.c1ccc(CNc2ncnc3nc[nH]c23)cc1` [BAP mesylate, 6-benzylaminopurine mesylate], for which, in the data set on NIH-3T3, the IC50 is > 167 µM. Besides, in data set [2], the Length of plants was 83.2 cm, the “Medium tillers (number)” value was found to be 1.35, the “Number of spikes per square meter” value came out at 758.4 and the SUM of tillers is reported as 6.35. Besides, in data set [2], the “Strong tillers (number)” value was determined as 2.75; the “Weak tillers (number)” value stood at 2.25; the “Grain yield (t/ha) at 14% humidity” value stood at 7.74 t/ha; the “Grain yield, % compared to control” value is 104.34%. In data set [2], the “Length of plants, % compared to control” value was determined as 100.48%; the “Medium tillers, % compared to control” value worked out at 64.29%; the “Number of spikes per square meter, % compared to control” value was 112.06%; the “SUM of tillers, % compared to control” value amounted to 110.43%. In data set [2], the “Strong tillers, % compared to control” value is listed as 152.78%; the “Weak tillers, % compared to control” value amounted to 121.62%; the Grain yield came to 104.34 % at control.

With `c1ccc(CNc2ncnc3nc[nH]c23)cc1` [BAP, 6-benzylaminopurine], in data set [1] (72 h), the IC50 is > 167 µM. Also, in data set [2], the Length of plants is 82.5 cm, the “Medium tillers (number)” value worked out at 1.7, the “Number of spikes per square meter” value came to 752 and the SUM of tillers is listed as 6.6. Further, in data set [2], the “Strong tillers (number)” value amounted to 2.8; the “Weak tillers (number)” value is 2.1; the “Grain yield (t/ha) at 14% humidity” value came out at 7.42 t/ha; the “Grain yield, % compared to control” value was 100.13%. In data set [2], the “Length of plants, % compared to control” value stood at 99.64%; the “Medium tillers, % compared to control” value worked out at 80.95%; the “Number of spikes per square meter, % compared to control” value is on record as 111.11%; the “SUM of tillers, % compared to control” value is listed as 114.78%. In data set [2], the “Strong tillers, % compared to control” value amounted to 155.56%; the “Weak tillers, % compared to control” value was determined as 113.51%; the Grain yield entry is reported as “did not affect grain yield”.

Consider `CS(=O)(=O)O.Oc1cccc(CNc2ncnc3nc[nH]c23)c1` [mT mesylate, 6-(3-hydroxybenzylamino)purine mesylate], for which the solubility in data set [3] (setting [7]) was 6000 µg/mL; in data set [3] (setting [8]) it was 22000 µg/mL; in data set [3] (setting [9]) it was 400 µg/mL; in data set [3] (setting [10]), < 250 µg/mL; in data set [3] (setting [11]), 400 µg/mL; in data set [3] (setting [12]), < 100 µg/mL. The solubility in data set [3] (setting [13]) amounted to 700 µg/mL. Also, in data set [1] (mesylate), the IC50 was > 167 µM. Further, the “Disproportionation (XRPD)” value in data set [4] is recorded as “No signs of disproportionation were observed”. Also, the “Storage stability (XRPD pattern and colour)” value in data set [5] is reported as “did not reveal any changes in XRPD spektra, or change in color”. The Grain yield in data set [2] came out at 108.03 % at control.

Regarding `Oc1cccc(CNc2ncnc3nc[nH]c23)c1` [meta-topolin (mT), 6-(3-hydroxybenzylamino)purine], the solubility in data set [3] (setting [7]) is 6000 µg/mL (≈ 24.9 mM); in data set [3] (setting [8]), 24000 µg/mL (≈ 99.5 mM); in data set [3] (setting [9]), 400 µg/mL (≈ 1.66 mM); in data set [3] (setting [10]) it was < 250 µg/mL; in data set [3] (setting [11]) it was 5000 µg/mL (≈ 20.7 mM); in data set [3] (setting [12]), < 100 µg/mL. Moreover, in data set [3] (setting [13]), the solubility is 5000 µg/mL (≈ 20.7 mM). In addition, the “aqueous solubility (reported)” value in data set [6] was < 250 µg/mL. Besides, in data set [1] (72 h), the IC50 was 90.1 µM.

In the case of `Oc1ccccc1CNc1ncnc2nc[nH]c12` [ortho-topolin (oT), 6-(2-hydroxybenzylamino)purine], in data set [1] (72 h), the IC50 was 69.2 µM.
